{"source": "patent US12377161B2", "about": "“TNF-alpha immunoconjugate therapy for the treatment of brain tumors” (priority 2020, dated 2025)", "assay_type_in_all_cases": "in vivo, human", "key": {"[1]": {"system": "glioblastoma (WHO grade IV) at first recurrence", "assay": "L19-TNF plus lomustine in a patient with glioblastoma at first recurrence, contrast enhanced MRI", "details": "one patient; 13 μg/kg L19-TNF iv on Days 1, 3, 5, 22, 24, 26 with 90 mg/m2 lomustine on Day 1; 40 days after baseline image", "experimental": "This example describes the effect of a combination therapy on a patient with recurrent glioblastoma after chemoradiotherapy followed by temozolomide maintenance therapy.\nA patient with glioblastoma (WHO grade IV) at first recurrence, received 90 mg/m2 lomustine (CCNU) on Day 1. Additionally, this patient received 13 μg/kg L19-TNF, by iv infusion, on Days 1, 3, 5, 22, 24 and 26.\nThe patient had been pretreated for newly diagnosed glioblastoma with resection and chemoradiotherapy followed by temozolomide maintenance therapy.\nContrast enhanced MRI was performed initially, before receiving the lomustine and L19-TNF (baseline image; see FIG. 3A) and 40 days after baseline image (FIG. 3B)."}, "recurrent glioblastoma [2]": {"system": "recurrent glioblastoma", "assay": "L19-TNFα treatment of patients with recurrent glioblastoma (tumor perfusion, necrosis, disease status)", "experimental": "Three patients with recurrent glioblastoma were treated with L19-TNFα at a dose level of 10 μg/kg. […] This is surprising considering that the Progression Free Survival (PFS) for recurrent glioblastoma is 1.5 months."}, "recurrent glioblastoma [3]": {"system": "recurrent glioblastoma", "assay": "Immunohistochemistry of tumor tissue before and after treatment with L19-TNFα", "details": "re-section tissue after treatment vs tissue from first surgery, patient with progressive disease"}, "[4]": {"details": "three patients, 10 μg/kg, twenty-four hours after the infusion"}}, "note": "Entries after “also recorded” stand apart in the source; their conditions may differ."}
{"substance": "L19-TNFα", "values": [{"measurement": "tumour size on contrast enhanced MRI", "setting": "[1]", "value": "substantially reduced"}, {"measurement": "disease status, one patient", "setting": "recurrent glioblastoma [2]; 10 μg/kg, one of three patients, after three months", "value": "progressive disease"}, {"measurement": "disease status, two patients", "setting": "recurrent glioblastoma [2]; 10 μg/kg, two of three patients, at six months after treatment, with increasing area of necrosis in the tumor region", "value": "stable disease"}, {"measurement": "overall tumor perfusion", "setting": "recurrent glioblastoma [2]; [4]", "value": "decrease"}, {"measurement": "tumor necrosis", "setting": "recurrent glioblastoma [2]; [4]", "value": "emerging tumor necrosis"}, {"measurement": "glioma lesions (size)", "setting": "recurrent glioblastoma [2]; two patients, FIG. 1A, after two and six cycles", "value": "gradually shrink"}, {"measurement": "necrotic core of the lesions", "setting": "recurrent glioblastoma [2]; two patients, FIG. 1A, before vs after treatment", "value": "expanding necrotic core"}, {"measurement": "cleaved caspase-3 levels in tumor", "setting": "recurrent glioblastoma [3]", "value": "increase; also recorded: increased levels"}, {"measurement": "tumor-infiltrating CD4 T-cells", "setting": "recurrent glioblastoma [3]", "value": "significant increase"}, {"measurement": "tumor-infiltrating CD8 T-cells", "setting": "recurrent glioblastoma [3]", "value": "significant increase"}]}
